Literature values as cited in PMC5587309, “Involvement of arginine 878 together with Ca^2+ in mouse aminopeptidase A substrate specificity for N-terminal acidic amino-acid residues” (PLoS ONE, 2017).

Molecular target: APA
Set-up: method as in PMID 7915326
Conditions: read-out: inhibitory potency on APA; cited from earlier work

Compound: N[C@H](CS)CCS(=O)(=O)O [EC33, (3S)‐3‐amino‐4‐sulfanylbutane‐1‐sulfonic acid]
- Ki: 100 nM
